Patent US20160251332A1, “Herbicidal Compounds” (SYNGENTA PARTICIPATIONS AG, priority 2013, published 2016)

Test system: Alopecurus myosuroides
Assay: Pre-emergence herbicidal activity, ALOMY
Assay type: in vivo
Details: Application pre-emergence, 1000 g/Ha, evaluated after 13 days, scale 0-5
Method: (§1) Seeds of a variety of test species were sown in standard soil in pots. After cultivation for one day (pre-emergence) under controlled conditions in a glasshouse (at 24/16° C., day/night; 14 hours light; 65% humidity), the plants were sprayed with an aqueous spray solution derived from the formulation of the technical active ingredient in acetone/water (50:50) solution containing 0.5% Tween 20 (polyoxyethelyene sorbitan monolaurate, CAS RN 9005-64-5). The test plants were then grown in a glasshouse under controlled conditions (at 24/16° C., day/night; 14 hours light; 65% humidity) and watered twice daily. After 13 days, the test was evaluated (5=total damage to plant; 0=no damage to plant).

Point of comparison: CN1CC(O)N(c2cc(C(F)(F)F)c(Cl)cn2)C1=O (stereo not drawn) [Compound A36], ALOMY damage score 4. Against it:
- COc1ccccc1-c1cnc(N2C(=O)N(C)CC2O)cc1C(F)(F)F (stereo not drawn) [Compound A18] — lower, 2
- CN1CC(O)N(c2cc(C(F)(F)F)c(I)cn2)C1=O (stereo not drawn) [Compound A5, 4-hydroxy-3-[5-iodo-4-(trifluoromethyl)-2-pyridyl]-1-methyl-imidazolidin-2-one] — the same, 4
- CN1CC(O)N(c2cc(C(F)(F)F)c(-c3ccc(C#N)s3)cn2)C1=O (stereo not drawn) [Compound A14] — lower, 2

Test system: Setaria faberi
Assay: Pre-emergence herbicidal activity, SETFA
Assay type: in vivo
Details: Application pre-emergence, 1000 g/Ha, evaluated after 13 days, scale 0-5
Method: as §1

Point of comparison: CN1CC(O)N(c2cc(C(F)(F)F)c(Cl)cn2)C1=O (stereo not drawn) [Compound A36], SETFA damage score 4. Against it:
- COc1ccccc1-c1cnc(N2C(=O)N(C)CC2O)cc1C(F)(F)F (stereo not drawn) [Compound A18] — lower, 1
- CN1CC(O)N(c2cc(C(F)(F)F)c(I)cn2)C1=O (stereo not drawn) [Compound A5, 4-hydroxy-3-[5-iodo-4-(trifluoromethyl)-2-pyridyl]-1-methyl-imidazolidin-2-one] — higher, 5
- CN1CC(O)N(c2cc(C(F)(F)F)c(-c3ccc(C#N)s3)cn2)C1=O (stereo not drawn) [Compound A14] — lower, 2

Test system: Setaria faberi
Assay: Post-emergence herbicidal activity, SETFA
Assay type: in vivo
Details: Application post-emergence, 1000 g/Ha, evaluated after 13 days, scale 0-5
Method: (§2) Seeds of a variety of test species were sown in standard soil in pots. After 8 days cultivation (post-emergence) under controlled conditions in a glasshouse (at 24/16° C., day/night; 14 hours light; 65% humidity), the plants were sprayed with an aqueous spray solution derived from the formulation of the technical active ingredient in acetone/water (50:50) solution containing 0.5% Tween 20 (polyoxyethelyene sorbitan monolaurate, CAS RN 9005-64-5). The test plants were then grown in a glasshouse under controlled conditions (at 24/16° C., day/night; 14 hours light; 65% humidity) and watered twice daily. After 13 days, the test was evaluated (5=total damage to plant; 0=no damage to plant).

Point of comparison: CN1CC(O)N(c2cc(C(F)(F)F)c(Cl)cn2)C1=O (stereo not drawn) [Compound A36], SETFA damage score 5. Against it:
- COc1ccccc1-c1cnc(N2C(=O)N(C)CC2O)cc1C(F)(F)F (stereo not drawn) [Compound A18] — lower, 2
- CN1CC(O)N(c2cc(C(F)(F)F)c(I)cn2)C1=O (stereo not drawn) [Compound A5, 4-hydroxy-3-[5-iodo-4-(trifluoromethyl)-2-pyridyl]-1-methyl-imidazolidin-2-one] — the same, 5
- CN1CC(O)N(c2cc(C(F)(F)F)c(-c3ccc(C#N)s3)cn2)C1=O (stereo not drawn) [Compound A14] — the same, 5

Test system: Echinochloa crus-galli
Assay: Pre-emergence herbicidal activity, ECHCG
Assay type: in vivo
Details: Application pre-emergence, 1000 g/Ha, evaluated after 13 days, scale 0-5
Method: as §1

Point of comparison: CN1CC(O)N(c2cc(C(F)(F)F)c(I)cn2)C1=O (stereo not drawn) [Compound A5, 4-hydroxy-3-[5-iodo-4-(trifluoromethyl)-2-pyridyl]-1-methyl-imidazolidin-2-one], ECHCG damage score 5. Against it:
- COc1ccccc1-c1cnc(N2C(=O)N(C)CC2O)cc1C(F)(F)F (stereo not drawn) [Compound A18] — lower, 3
- CN1CC(O)N(c2cc(C(F)(F)F)c(Cl)cn2)C1=O (stereo not drawn) [Compound A36] — the same, 5
- CN1CC(O)N(c2cc(C(F)(F)F)c(-c3ccc(C#N)s3)cn2)C1=O (stereo not drawn) [Compound A14] — lower, 3

Test system: Zea mays
Assay: Post-emergence herbicidal activity, ZEAMX
Assay type: in vivo
Details: Application post-emergence, 1000 g/Ha, evaluated after 13 days, scale 0-5
Method: as §2

Point of comparison: CN1CC(O)N(c2cc(C(F)(F)F)c(-c3ccc(C#N)s3)cn2)C1=O (stereo not drawn) [Compound A14], ZEAMX damage score 3. Against it:
- COc1ccccc1-c1cnc(N2C(=O)N(C)CC2O)cc1C(F)(F)F (stereo not drawn) [Compound A18] — higher, 5
- CN1CC(O)N(c2cc(C(F)(F)F)c(Cl)cn2)C1=O (stereo not drawn) [Compound A36] — higher, 5
- CN1CC(O)N(c2cc(C(F)(F)F)c(I)cn2)C1=O (stereo not drawn) [Compound A5, 4-hydroxy-3-[5-iodo-4-(trifluoromethyl)-2-pyridyl]-1-methyl-imidazolidin-2-one] — higher, 5

Test system: Abutilon theophrasti
Assay: Pre-emergence herbicidal activity, ABUTH
Assay type: in vivo
Details: Application pre-emergence, 1000 g/Ha, evaluated after 13 days, scale 0-5
Method: as §1

Point of comparison: CN1CC(O)N(c2cc(C(F)(F)F)c(I)cn2)C1=O (stereo not drawn) [Compound A5, 4-hydroxy-3-[5-iodo-4-(trifluoromethyl)-2-pyridyl]-1-methyl-imidazolidin-2-one], ABUTH damage score 5. Against it:
- COc1ccccc1-c1cnc(N2C(=O)N(C)CC2O)cc1C(F)(F)F (stereo not drawn) [Compound A18] — lower, 2
- CN1CC(O)N(c2cc(C(F)(F)F)c(Cl)cn2)C1=O (stereo not drawn) [Compound A36] — the same, 5
- CN1CC(O)N(c2cc(C(F)(F)F)c(-c3ccc(C#N)s3)cn2)C1=O (stereo not drawn) [Compound A14] — lower, 3

Test system: Amaranthus retroflexus
Assay: Post-emergence herbicidal activity, AMARE
Assay type: in vivo
Details: Application post-emergence, 1000 g/Ha, evaluated after 13 days, scale 0-5
Method: as §2

Point of comparison: CN1CC(O)N(c2cc(C(F)(F)F)c(I)cn2)C1=O (stereo not drawn) [Compound A5, 4-hydroxy-3-[5-iodo-4-(trifluoromethyl)-2-pyridyl]-1-methyl-imidazolidin-2-one], AMARE damage score 5. Against it:
- COc1ccccc1-c1cnc(N2C(=O)N(C)CC2O)cc1C(F)(F)F (stereo not drawn) [Compound A18] — the same, 5
- CN1CC(O)N(c2cc(C(F)(F)F)c(Cl)cn2)C1=O (stereo not drawn) [Compound A36] — the same, 5
- CN1CC(O)N(c2cc(C(F)(F)F)c(-c3ccc(C#N)s3)cn2)C1=O (stereo not drawn) [Compound A14] — the same, 5

Test system: Zea mays
Assay: Pre-emergence herbicidal activity, ZEAMX
Assay type: in vivo
Details: Application pre-emergence, 1000 g/Ha, evaluated after 13 days, scale 0-5
Method: as §1

Point of comparison: CN1CC(O)N(c2cc(C(F)(F)F)c(Cl)cn2)C1=O (stereo not drawn) [Compound A36], ZEAMX damage score 2. Against it:
- COc1ccccc1-c1cnc(N2C(=O)N(C)CC2O)cc1C(F)(F)F (stereo not drawn) [Compound A18] — lower, 1
- CN1CC(O)N(c2cc(C(F)(F)F)c(I)cn2)C1=O (stereo not drawn) [Compound A5, 4-hydroxy-3-[5-iodo-4-(trifluoromethyl)-2-pyridyl]-1-methyl-imidazolidin-2-one] — higher, 4
- CN1CC(O)N(c2cc(C(F)(F)F)c(-c3ccc(C#N)s3)cn2)C1=O (stereo not drawn) [Compound A14] — the same, 2

Test system: Abutilon theophrasti
Assay: Post-emergence herbicidal activity, ABUTH
Assay type: in vivo
Details: Application post-emergence, 1000 g/Ha, evaluated after 13 days, scale 0-5
Method: as §2

Point of comparison: CN1CC(O)N(c2cc(C(F)(F)F)c(Cl)cn2)C1=O (stereo not drawn) [Compound A36], ABUTH damage score 5. Against it:
- COc1ccccc1-c1cnc(N2C(=O)N(C)CC2O)cc1C(F)(F)F (stereo not drawn) [Compound A18] — the same, 5
- CN1CC(O)N(c2cc(C(F)(F)F)c(I)cn2)C1=O (stereo not drawn) [Compound A5, 4-hydroxy-3-[5-iodo-4-(trifluoromethyl)-2-pyridyl]-1-methyl-imidazolidin-2-one] — the same, 5
- CN1CC(O)N(c2cc(C(F)(F)F)c(-c3ccc(C#N)s3)cn2)C1=O (stereo not drawn) [Compound A14] — the same, 5

Test system: Echinochloa crus-galli
Assay: Post-emergence herbicidal activity, ECHCG
Assay type: in vivo
Details: Application post-emergence, 1000 g/Ha, evaluated after 13 days, scale 0-5
Method: as §2

Point of comparison: CN1CC(O)N(c2cc(C(F)(F)F)c(-c3ccc(C#N)s3)cn2)C1=O (stereo not drawn) [Compound A14], ECHCG damage score 5. Against it:
- COc1ccccc1-c1cnc(N2C(=O)N(C)CC2O)cc1C(F)(F)F (stereo not drawn) [Compound A18] — lower, 4
- CN1CC(O)N(c2cc(C(F)(F)F)c(Cl)cn2)C1=O (stereo not drawn) [Compound A36] — the same, 5
- CN1CC(O)N(c2cc(C(F)(F)F)c(I)cn2)C1=O (stereo not drawn) [Compound A5, 4-hydroxy-3-[5-iodo-4-(trifluoromethyl)-2-pyridyl]-1-methyl-imidazolidin-2-one] — the same, 5

Test system: Amaranthus retroflexus
Assay: Pre-emergence herbicidal activity, AMARE
Assay type: in vivo
Details: Application pre-emergence, 1000 g/Ha, evaluated after 13 days, scale 0-5
Method: as §1

Point of comparison: COc1ccccc1-c1cnc(N2C(=O)N(C)CC2O)cc1C(F)(F)F (stereo not drawn) [Compound A18], AMARE damage score 2. Against it:
- CN1CC(O)N(c2cc(C(F)(F)F)c(Cl)cn2)C1=O (stereo not drawn) [Compound A36] — higher, 5
- CN1CC(O)N(c2cc(C(F)(F)F)c(I)cn2)C1=O (stereo not drawn) [Compound A5, 4-hydroxy-3-[5-iodo-4-(trifluoromethyl)-2-pyridyl]-1-methyl-imidazolidin-2-one] — higher, 5
- CN1CC(O)N(c2cc(C(F)(F)F)c(-c3ccc(C#N)s3)cn2)C1=O (stereo not drawn) [Compound A14] — higher, 5

Test system: Alopecurus myosuroides
Assay: Post-emergence herbicidal activity, ALOMY
Assay type: in vivo
Details: Application post-emergence, 1000 g/Ha, evaluated after 13 days, scale 0-5
Method: as §2

Point of comparison: CN1CC(O)N(c2cc(C(F)(F)F)c(Cl)cn2)C1=O (stereo not drawn) [Compound A36], ALOMY damage score 5. Against it:
- COc1ccccc1-c1cnc(N2C(=O)N(C)CC2O)cc1C(F)(F)F (stereo not drawn) [Compound A18] — lower, 2
- CN1CC(O)N(c2cc(C(F)(F)F)c(I)cn2)C1=O (stereo not drawn) [Compound A5, 4-hydroxy-3-[5-iodo-4-(trifluoromethyl)-2-pyridyl]-1-methyl-imidazolidin-2-one] — the same, 5
- CN1CC(O)N(c2cc(C(F)(F)F)c(-c3ccc(C#N)s3)cn2)C1=O (stereo not drawn) [Compound A14] — lower, 4
